The values below come from patent US11660303B2, “2-phenylimidazo[4,5-b]pyridin-7-amine derivates useful as inhibitors of mammalian tyrosine kinase ROR1 activity” (KANCERA AB, priority 2016, dated 2023).

The term IC50 denotes the concentration that gives 50% inhibition. Higher therefore signals weaker potency.

Assay [1] concerns PBMC from healthy volunteers. Briefly: CellTiter-Blue Cell Viability Assay, PBMC from healthy volunteers. Format: cell-based. The settings on record: Homo sapiens, cell toxicity, culture 24, 48 and 72 h (time of the values not stated). Here is the method:
(§1) The CellTiter-Blue® Cell Viability Assay provides a homogeneous, fluorometric method for estimating the number of viable cells present in multi-well plates. The assay uses the indicator dye resazurin to measure the metabolic capacity of cells. Viable cells retain the ability to reduce resazurin into resorufin, which is highly fluorescent.
(§2) Stock solutions (10 or 100 mM in DMSO) of compounds were serially diluted 1:2 in 11 concentrations and 25 nL/well (100 mM stock) or 50 nL/well (10 mM stock) were acoustically dispensed in assay plates with an EDC acoustic dispenser. Final starting concentration in the assay was 20 μM (0.2% DMSO) or 100 μM (0.1% DMSO) for test compounds.
(§3) Peripheral blood mononuclear cells (PBMC) from CLL patients or healthy volunteers were seeded in assay plates (384-well black/clear, Greiner #781091) pre-dispensed with compounds, 25 μL/well, and cultured for 24, 48 and 72 h. The cell concentration was 50 000 cells/well for PBMC from CLL patients or healthy volunteers. After 24, 48 and 72 h culture, Celltiter Blue reagent was added (5 μL/well) and the plates were incubated for 2 h. The plates were read in an Envision fluorescence reader (PerkinElmer) with Ex544 nm/Em590 nm. Results were calculated as % cytotoxicity compared to background (cells treated with 0.2% DMSO).
(§4) Thus, IC50 values for cell toxicity in PBMC from CLL patients as well as healthy volunteers for some compounds of the invention are shown in Table 3 as measured by the CellTiter-Blue® Cell Viability Assay.

The next assay deals with PBMC from CLL patients. Briefly: CellTiter-Blue Cell Viability Assay, PBMC from CLL patients. The class given is cell-based. The settings on record: Homo sapiens, cell toxicity, culture 24, 48 and 72 h (time of the values not stated). Here is the method:
as §1, §2, §3, §4

Bounds are passed on as bounds.

On to `CN1CCC(Nc2c(Br)cnc3[nH]c(-c4ccc(N5CCN(Cc6ccccn6)CC5)cc4)nc23)CC1` [Example 115, 6-Bromo-N-(1-methylpiperidin-4-yl)-2-{4-[4-(pyridin-2-ylmethyl)piperazin-1-yl]phenyl}-3H-imidazo[4,5-b]pyridin-7-amine], for which the IC50 in assay [1] is 16200 nM; with PBMC from CLL patients, 40 nM.
The corresponding values for `CC(C)N1CCC(Nc2c(Br)cnc3[nH]c(-c4ccc(N5CCN(CCC#N)CC5)cc4)nc23)CC1` [Example 337, 3-{4-[4-(6-Bromo-7-{[1-(1-methylethyl)piperidin-4-yl]amino}-3H-imidazo[4,5-b]pyridin-2-yl)phenyl]piperazin-1-yl}propanenitrile] are over 20000 nM and 250 nM.
The corresponding values for `Cc1noc(C)c1CN1CCN(c2ccc(-c3nc4c(NC5CCN(C)CC5)c(Cl)cnc4[nH]3)cc2)CC1` [Example 119, 6-Chloro-2-(4-{4-[(3,5-dimethylisoxazol-4-yl)methyl]piperazin-1-yl}phenyl)-N-(1-methylpiperidin-4-yl)-3H-imidazo[4,5-b]pyridin-7-amine] are 17000 nM and 40 nM.
For the compound `CN1CCC(Nc2c(Cl)cnc3[nH]c(-c4ccc(N5CCN(Cc6ccccn6)CC5)cc4)nc23)CC1` [Example 98, 6-Chloro-N-(1-methylpiperidin-4-yl)-2-{4-[4-(pyridin-2-ylmethyl)piperazin-1-yl]phenyl}-3H-imidazo[4,5-b]pyridin-7-amine], the IC50 in assay [1] is over 20000 nM; in the assay on PBMC from CLL patients, 60 nM.
Consider `COCCN1CCN(c2ccc(-c3nc4c(NC5CCN(Cc6ccc(OC)cc6)CC5)c(Cl)cnc4[nH]3)cc2)CC1` [Example 14, 6-Chloro-N-[1-(4-methoxybenzyl)piperidin-4-yl]-2-{4-[4-(2-methoxyethyl)piperazin-1-yl]phenyl}-3H-imidazo[4,5-b]pyridin-7-amine], for which the IC50 turned out to be 15600 nM in assay [1] and 420 nM in the assay on PBMC from CLL patients.
With `CCN1CCC(Nc2c(Br)cnc3[nH]c(-c4ccc(N5CCN(C(=O)C(C)(C)C)CC5)cc4)nc23)CC1` [Example 363, 6-Bromo-2-{4-[4-(2,2-dimethylpropanoyl)piperazin-1-yl]phenyl}-N-(1-ethylpiperidin-4-yl)-3H-imidazo[4,5-b]pyridin-7-amine], the IC50 in assay [1] was determined as 3100 nM; in the assay on PBMC from CLL patients, 140 nM.
The like results for `CN1CCC(Nc2c(Cl)cnc3[nH]c(-c4ccc(N5CCN(C)CC5)cc4)nc23)CC1` [Example 2, 6-Chloro-2-[4-(4-methylpiperazin-1-yl)phenyl]-N-(1-methylpiperidin-4-yl)-3H-imidazo[4,5-b]pyridin-7-amine] were, in that order, over 20000 nM and 160 nM.
Consider `CCOCCN1CCN(c2ccc(-c3nc4c(NC5CCN(CCC#N)CC5)c(Br)cnc4[nH]3)cc2)CC1=O` [Example 406, 3-{4-[(6-Bromo-2-{4-[4-(2-ethoxyethyl)-3-oxopiperrazin-1-yl]phenyl}-3H-imidazo[4,5-b]pyridin-7-yl)amino]piperidin-1-yl}propanenitrile], for which the half-maximal inhibitory concentration (IC50) in assay [1] was over 20000 nM; in the assay on PBMC from CLL patients, 230 nM.
With `CN1CC[C@H](Nc2c(Br)cnc3[nH]c(-c4ccc(N5CCN(Cc6cncnc6)CC5)cc4)nc23)C1` [Example 157, 6-Bromo-N-[(3S)-1-methylpyrrolidin-3-yl]-2-{4-[4-(pyrimidin-5-ylmethyl)piperazin-1-yl]phenyl}-3H-imidazo[4,5-b]pyridin-7-amine], the IC50 in assay [1] was over 20000 nM; in the assay on PBMC from CLL patients it was 290 nM.
The corresponding values for `CC(C)N1CCC(Nc2c(Cl)cnc3[nH]c(-c4ccc(N5CCN(CCNc6ccnn6C)CC5)cc4)nc23)CC1` [Example 326, 6-Chloro-N-[1-(1-methylethyl)piperidin-4-yl]-2-[4-(4-{2-[(1-methyl-1H-pyrazol-5-yl)amino]ethyl}piperazin-1-yl)phenyl]-3H-imidazo[4,5-b]pyridin-7-amine] are over 20000 nM and 260 nM.
As for `CCN1CCN(c2ccc(-c3nc4c(NC5CCN(C)CC5)c(Br)cnc4[nH]3)cc2)CC1` [Example 10, 6-Bromo-2-[4-(4-ethylpiperazin-1-yl)phenyl]-N-(1-methylpiperidin-4-yl)-3H-imidazo[4,5-b]pyridin-7-amine], the IC50 in assay [1] is over 20000 nM; with PBMC from CLL patients, 110 nM.
The corresponding values for `COCCCN1CCN(c2ccc(-c3nc4c(NC5CCN(CCOC)CC5)c(Cl)cnc4[nH]3)cc2)CC1` [Example 308, 6-Chloro-N-[1-(2-methoxyethyl)piperidin-4-yl]-2-{4-[4-(3-methoxypropyl)piperazin-1-yl]phenyl}-3H-imidazo[4,5-b]pyridin-7-amine] are over 20000 nM and 650 nM.
The like results for `CCN1CCC(Nc2c(Cl)cnc3[nH]c(-c4ccc(N5CCN(Cc6cncs6)CC5)cc4)nc23)CC1` [Example 320, 6-Chloro-N-(1-ethylpiperidin-4-yl)-2-{4-[4-(1,3-thiazol-5-ylmethyl)piperazin-1-yl]phenyl}-3H-imidazo[4,5-b]pyridin-7-amine] were, in that order, over 20000 nM and 100 nM.
The like results for `CC(C)OCCN1CCN(c2ccc(-c3nc4c(NC5CCN(Cc6ccc(N(C)C)cc6)CC5)c(Cl)cnc4[nH]3)cc2)CC1` [Example 90, 6-Chloro-N-{1-[4-(dimethylamino)benzyl]piperidin-4-yl}-2-(4-{4-[2-(1-methylethoxy)ethyl]piperazin-1-yl}phenyl)-3H-imidazo[4,5-b]pyridin-7-amine] were, in that order, over 20000 nM and 870 nM.
In the case of `CCN1CCC(Nc2c(Br)cnc3[nH]c(-c4ccc(N5CCN(C(=O)COC)CC5)cc4)nc23)CC1` [Example 239, 6-Bromo-N-(1-ethylpiperidin-4-yl)-2-{4-[4-(methoxyacetyl)piperazin-1-yl]phenyl}-3H-imidazo[4,5-b]pyridin-7-amine], the values for the IC50 (in assay [1]; with PBMC from CLL patients) were over 20000 nM and 100 nM, respectively.
The corresponding values for `CC(C)N1CCC(Nc2c(Cl)cnc3[nH]c(-c4ccc(N5CCN(Cc6cccnc6)CC5)cc4)nc23)CC1` [Example 168, 6-Chloro-N-[1-(1-methylethyl)piperidin-4-yl]-2-{4-[4-(pyridin-3-ylmethyl)piperazin-1-yl]phenyl}-3H-imidazo[4,5-b]pyridin-7-amine] are 17200 nM and 230 nM.
The corresponding values for `COCCN1CCN(c2ccc(-c3nc4c(NC5CCN(C)CC5)c(Cl)cnc4[nH]3)cc2OC)CC1` [Example 381, 6-Chloro-2-{3-methoxy-4-[4-(2-methoxyethyl)piperazin-1-yl]phenyl}-N-(1-methylpiperidin-4-yl)-3H-imidazo[4,5-b]pyridin-7-amine] are over 20000 nM and 400 nM.
The like results for `CCN1CCC(Nc2c(Cl)cnc3[nH]c(-c4ccc(N5CCN(Cc6cccc(C)n6)CC5)cc4)nc23)CC1` [Example 142, 6-Chloro-N-(1-ethylpiperidin-4-yl)-2-(4-{4-[(6-methylpyridin-2-yl)methyl]piperazin-1-yl}phenyl)-3H-imidazo[4,5-b]pyridin-7-amine] were, in that order, 14800 nM and 240 nM.
As for `CN1CCC(Nc2c(Br)cnc3[nH]c(-c4ccc(N5CCN(CCCO)CC5)cc4)nc23)CC1` [Example 268, 3-[4-(4-{6-Bromo-7-[(1-methylpiperidin-4-yl)amino]-3H-imidazo[4,5-b]pyridin-2-yl}phenyl)piperazin-1-yl]propan-1-ol], the IC50 in assay [1] was over 20000 nM; with PBMC from CLL patients, 10 nM.
